Measured values: patent US4320141A, “Antitumor agent” (priority 1977, dated 1982)
Like-named read-outs stand apart in the source and are kept apart here.

How the values were obtained:
[1] = Acute toxicity in mice (LD50); assay type: in vivo; settings: for LD50: mouse, in vivo
Excerpt: Acute toxicity in mice of α-tocopherol vitamin A acid ester which is the active ingredient of the antitumor agent of this invention is particularly low as shown below, even when any route of administration such as oral route, intraperitoneal route or intravenous injection is applied.

[2] = test system: experimental tumor developed on epithelial cells; settings: prophylaxis or therapy of experimental tumor; cited from earlier work
[3] = in vivo; cited from earlier work
tumor [4] = test: Prophylactic effect on development of tumor (DMBA-initiated, croton oil-promoted, coated on depilated back); assay type: in vivo, ICR mice; settings: groups of 10 mice, 4 months
Excerpt: To groups of 10 ICR mice, was applied 0.2% acetone solution of a cancerigenic agent, dimethylbenzanthracene (abbreviated hereinafter as DMBA) by coating said solution on the depilated back of the mice once a day for two weeks. From one week after the final administration of DMBA, an acetone solution of. 0.06% croton oil and a lotion containing an acetone solution of 0.06% croton oil and the active ingredient according to the present invention were coated successively on the back once a day for 4 months.
The lotion used above was prepared according to the following process:
A desired amount of α-tocopherol vitamin A acid ester was dissolved in 10 g of ethyl alcohol together with 0.5 g of […] sorbitan monolaurate and 6 g of glycerin and purified water were added thereto to make up the total 100 g. The solution thus obtained was stirred thoroughly to give lotion.

tumor [5] = test: Therapeutic effect on tumor (DMBA-induced, hairless mice); assay type: in vivo; settings: three weeks, counted on each animal
Description: On the back of hairless mice was coated 0.2% DMBA dissolved in olive oil with a brush three times a week for 2 months. After confirmation of development of tumor, test zone comprising groups of five mice was arranged indiscriminately. To these animals was administered α-tocopherol vitamin A acid ester either topically or orally and change of tumor was observed.
the back of animal twice a day with brush.

[6] = intravenous, read-out: LD50, intravenous injection
[7] = ip, intraperitoneal, read-out: LD50, intraperitoneal administration
[8] = oral, read-out: LD50, oral administration
[9] = 0.3% lotion, percutaneous, without croton oil
[10] = croton oil + 0.02% lotion, percutaneous, croton oil alone 10
[11] = croton oil + 0.3% lotion, percutaneous, croton oil alone 10
[12] = 0.01% lotion, topical twice a day, control 5
[13] = 0.01% lotion, topical twice a day, control 8
[14] = 0.01% lotion, topical twice a day, control 17
[15] = 0.05% lotion, topical twice a day, control 5
[16] = 0.05% lotion, topical twice a day, control 8
[17] = 0.05% lotion, topical twice a day, control 17

SMILES | LD50 [1, 6] | LD50 [1, 7] | LD50 [1, 8] | Number of animals in which tumor was developed (tumor [4]; [9]) | Number of animals in which tumor was developed (tumor [4]; [10]) | Number of animals in which tumor was developed (tumor [4]; [11]) | Average number of tumor, smaller than 2mm (tumor [5]; [12]) | Average number of tumor, 5-2mm (tumor [5]; [13]) | Average number of tumor, larger than 5mm (tumor [5]; [14]) | Average number of tumor, smaller than 2mm (tumor [5]; [15]) | Average number of tumor, 5-2mm (tumor [5]; [16]) | Average number of tumor, larger than 5mm (tumor [5]; [17]) | also measured
CC1=C(/C=C/C(C)=C/C=C/C(C)=C/C(=O)O)C(C)(C)CCC1 [Vitamin A acid, vitamin A acid, reference compound] |  |  |  |  |  |  |  |  |  |  |  |  | LD50, intraperitoneal administration ([1]; intraperitoneal): 150 mg/kg; LD50, intravenous injection ([1]; intravenous): 92 mg/kg; LD50, oral administration ([1]; oral): 780 mg/kg; Antitumor activity (in words) [2]: effective for prophylaxis of development or therapy of experimental tumor developed on epithelial cells; Toxicity (in words) [3]: quite strongly toxic
CC1=C(/C=C/C(C)=C/C=C/C(C)=C\C(=O)Oc2c(C)c(C)c3c(c2C)CCC(C)(CCCC(C)CCCC(C)CCCC(C)C)O3)C(C)(C)CCC1 (stereo not drawn) [α-tocopherol-13-cis-vitamin A acid ester] | > 1000 mg/kg | > 10000 mg/kg | > 10000 mg/kg | 0 | 4 | 2 | 8 | 3 | 4 | 4 | 6 | 2 | 
CC1=C(/C=C/C(C)=C/C=C/C(C)=C/C(=O)Oc2c(C)c(C)c3c(c2C)CCC(C)(CCCC(C)CCCC(C)CCCC(C)C)O3)C(C)(C)CCC1 (stereo not drawn) [α-tocopherol-trans-vitamin A acid ester] | > 1000 mg/kg | > 10000 mg/kg | > 10000 mg/kg | 0 | 5 | 2 | 8 | 5 | 7 | 13 | 6 | 1 | Number of animals in which tumor was developed (tumor [4]; croton oil + 200mg/day, oral, croton oil alone 10): 3; Average number of tumor, smaller than 2mm (tumor [5]; 200mg/kg, oral, control (topical) 5): 10; Average number of tumor, 5-2mm (tumor [5]; 200mg/kg, oral, control (topical) 8): 6; Average number of tumor, larger than 5mm (tumor [5]; 200mg/kg, oral, control (topical) 17): 4; Average number of tumor, smaller than 2mm (tumor [5]; 500mg/kg, oral, control (topical) 5): 6; Average number of tumor, 5-2mm (tumor [5]; 500mg/kg, oral, control (topical) 8): 5; Average number of tumor, larger than 5mm (tumor [5]; 500mg/kg, oral, control (topical) 17): 2
